According to patent US20240327381A1, “Compounds and Compositions for Selective Degradation of Engineered Proteins” (Celgene Corporation, priority 2023, published 2024):
Where two headings read alike, the source gives them in different places.

Key:
[1] = biological target: T1, Helios (Homo sapiens, UniProt Q9UKS7); experiment: Helios degradation in Jurkat/Helios/HiBit cells (Nano-Glo luminescence); type: cell-based; details: 18 hr, read-out: Helios Jurkat Hibit IC50
T1 construct: endogenous in cells; host or cells: Jurkat cells, CRISPR/Cas9 knock-in of HiBit at the IKZF2 locus
Description: For Helios, a stable Jurkat cell line was engineered using CRISPR/Cas9 to insert an in-frame HiBit tag into the carboxy-terminal reading frame of the IKZF2 gene. The sequence of human Helios is shown below:
Test compounds were transferred to 1536 well plates using an acoustic dispenser, and Jurkat/Helios/HiBit cells in DMEM/10% FCS were plated at 10,000 cells/well in a final volume of 5 μL. Cells were incubated at 37 C, 95% RH for 18 hr. Luciferase activity was measured by adding 2 μL/well of Nano-Glo reagent (Promega), incubating at RT for 30 min, and reading luminescence on a microtiter plate reader.
(§1) To determine the EC50 value of a compound for the degradation of a given substrate (concentration of compound that achieves half the maximum degradation observed), a four-parameter logistic model (sigmoidal dose-response model) (FIT=(A+{(B−A)/1+[(C/x)D]})) where C is the inflection point (EC50), D is the […], and A and B are the low and high limits of the fit, respectively) was used. All substrate degradation curves were processed and evaluated using ActivityBase (IDBS), a data analysis software package. Ymax is the % protein degraded (Ymin=100−Ymax and is minimum percent protein remaining).

[2] = biological target: T2, IKZF1 ZNF2_ZNF3 Q1F degron-tagged CD19 CAR (Homo sapiens, UniProt Q13422, Q146F); experiment: Degradation of Q1F degron-tagged CD19 CAR in Jurkat cells (flow cytometry of CAR levels); type: cell-based; details: for DC50: Jurkat cells expressing CD19 CAR tagged with IKZF1 ZNF2_ZNF3 Q1F, 18 hours at 37° C., CAR levels normalized to untreated cells, read-out: Q1F Jurkat IC50; for Dmax: read-out: Q1F Jurkat-YMax
T2 construct: ZNF2_ZNF3 Q1F degron (GERPFFCNQCGASFTQKGNLLRHIKLHSGEKPFKCHLCNYACRRRDALTGHLRTHS); fused on or other part: anti-CD19 scFv, CD28 transmembrane domain, 4-1BB costimulatory domain, CD3 zeta signaling domain (the CAR that carries the degron), and Nluc
Description: Q1F degron-targeting compounds were screened in Jurkat cells engineered to express a IKZF1 ZNF2_ZNF3 Q1F. The cell line was generated with lentiviral vectors containing CD19 CARs tagged with IKZF1 ZNF2_ZNF3 QIF Nluc, which were transduced into Jurkat cells. The CD19 CAR comprised an anti-CD19 scFv, a CD28 transmembrane domain, a 4-1BB costimulatory domain, a CD3ζ signaling domain, and a ZNF2_ZNF3 Q1F degron (GERPFFCNQCGASFTQKGNLLRHIKLHSGEKPFKCHLCNYACRRRDALTGHLRTHS; SEQ ID NO: 1; Q1F substitution underlined). Transduced cells were treated with a titration of each small molecule or no drug and then incubated at 37° C. for 18 hours. Cells were washed and stained with appropriate staining reagent to measure CAR levels. The cells were incubated at 4° C. in the staining reagents for 20 mins and then washed 3 times before being read on the flow cytometer. CAR levels were normalized to cells that had not been treated with drug. EC50 and Ymin values were calculated using the resulting titration curve. This identified small molecules that potently degraded the Q1F degron-tagged CARs (Table 1).
as §1

[3] = Ymax is the % protein degraded, Jurkat cells expressing Q1F degron-tagged CD19 CAR, 18 hours

T1 sequence (Q9UKS7 whole entry): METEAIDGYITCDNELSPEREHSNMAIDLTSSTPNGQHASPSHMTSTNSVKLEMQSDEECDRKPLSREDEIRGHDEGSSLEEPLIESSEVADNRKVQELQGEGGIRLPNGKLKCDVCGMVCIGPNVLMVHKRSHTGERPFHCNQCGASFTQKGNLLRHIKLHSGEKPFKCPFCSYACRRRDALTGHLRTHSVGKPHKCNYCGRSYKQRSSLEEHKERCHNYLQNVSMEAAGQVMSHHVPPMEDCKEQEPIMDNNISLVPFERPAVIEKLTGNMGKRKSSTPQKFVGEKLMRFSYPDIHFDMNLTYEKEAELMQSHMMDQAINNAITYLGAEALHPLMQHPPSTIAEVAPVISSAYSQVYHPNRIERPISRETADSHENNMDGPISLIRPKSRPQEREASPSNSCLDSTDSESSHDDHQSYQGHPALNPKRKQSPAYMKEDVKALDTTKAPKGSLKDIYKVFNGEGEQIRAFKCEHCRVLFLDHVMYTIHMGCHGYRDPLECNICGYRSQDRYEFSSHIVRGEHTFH
T1 sequence (Q96SW2 whole entry, further chain): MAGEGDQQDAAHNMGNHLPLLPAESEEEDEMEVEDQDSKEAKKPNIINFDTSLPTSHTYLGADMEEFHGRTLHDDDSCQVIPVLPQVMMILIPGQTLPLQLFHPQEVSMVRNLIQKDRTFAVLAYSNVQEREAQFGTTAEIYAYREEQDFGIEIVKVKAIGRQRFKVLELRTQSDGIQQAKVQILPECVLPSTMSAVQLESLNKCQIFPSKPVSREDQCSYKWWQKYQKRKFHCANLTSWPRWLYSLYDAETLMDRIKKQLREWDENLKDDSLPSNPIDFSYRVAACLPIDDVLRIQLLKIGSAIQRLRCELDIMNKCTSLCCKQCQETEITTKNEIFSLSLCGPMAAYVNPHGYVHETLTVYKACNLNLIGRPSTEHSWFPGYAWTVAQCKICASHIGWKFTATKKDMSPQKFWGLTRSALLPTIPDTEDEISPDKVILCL
T1 sequence (Q16531 whole entry partner): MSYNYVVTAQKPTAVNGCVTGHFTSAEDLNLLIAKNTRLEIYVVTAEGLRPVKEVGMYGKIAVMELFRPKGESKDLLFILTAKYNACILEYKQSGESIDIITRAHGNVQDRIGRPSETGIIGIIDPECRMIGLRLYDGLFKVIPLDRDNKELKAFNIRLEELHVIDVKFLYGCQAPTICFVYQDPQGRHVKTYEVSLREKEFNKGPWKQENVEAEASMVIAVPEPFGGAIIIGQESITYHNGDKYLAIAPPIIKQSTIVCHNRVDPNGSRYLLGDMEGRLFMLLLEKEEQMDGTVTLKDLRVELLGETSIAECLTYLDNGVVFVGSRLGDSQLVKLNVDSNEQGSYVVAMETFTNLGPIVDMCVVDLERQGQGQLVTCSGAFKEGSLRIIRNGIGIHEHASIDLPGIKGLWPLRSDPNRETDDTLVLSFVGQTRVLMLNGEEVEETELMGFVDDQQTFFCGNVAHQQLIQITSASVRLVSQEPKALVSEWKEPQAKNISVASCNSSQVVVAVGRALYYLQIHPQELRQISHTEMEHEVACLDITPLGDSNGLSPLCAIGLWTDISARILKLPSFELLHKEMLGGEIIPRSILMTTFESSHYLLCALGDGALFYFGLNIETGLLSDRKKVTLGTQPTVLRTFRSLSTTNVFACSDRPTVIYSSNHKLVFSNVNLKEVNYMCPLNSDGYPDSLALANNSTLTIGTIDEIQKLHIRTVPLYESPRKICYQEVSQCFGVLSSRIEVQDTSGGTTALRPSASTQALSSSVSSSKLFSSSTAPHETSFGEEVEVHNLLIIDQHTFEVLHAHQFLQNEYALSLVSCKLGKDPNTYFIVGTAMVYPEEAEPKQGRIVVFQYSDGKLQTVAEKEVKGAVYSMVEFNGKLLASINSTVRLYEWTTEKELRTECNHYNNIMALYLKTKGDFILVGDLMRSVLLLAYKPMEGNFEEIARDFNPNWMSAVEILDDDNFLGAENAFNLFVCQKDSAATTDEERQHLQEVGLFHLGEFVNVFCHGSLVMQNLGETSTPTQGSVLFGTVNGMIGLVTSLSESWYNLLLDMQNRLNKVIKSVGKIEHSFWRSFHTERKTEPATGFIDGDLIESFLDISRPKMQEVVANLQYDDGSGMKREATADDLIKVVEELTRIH
T2 sequence (Q13422 whole entry Q146F, the tested form may be a part): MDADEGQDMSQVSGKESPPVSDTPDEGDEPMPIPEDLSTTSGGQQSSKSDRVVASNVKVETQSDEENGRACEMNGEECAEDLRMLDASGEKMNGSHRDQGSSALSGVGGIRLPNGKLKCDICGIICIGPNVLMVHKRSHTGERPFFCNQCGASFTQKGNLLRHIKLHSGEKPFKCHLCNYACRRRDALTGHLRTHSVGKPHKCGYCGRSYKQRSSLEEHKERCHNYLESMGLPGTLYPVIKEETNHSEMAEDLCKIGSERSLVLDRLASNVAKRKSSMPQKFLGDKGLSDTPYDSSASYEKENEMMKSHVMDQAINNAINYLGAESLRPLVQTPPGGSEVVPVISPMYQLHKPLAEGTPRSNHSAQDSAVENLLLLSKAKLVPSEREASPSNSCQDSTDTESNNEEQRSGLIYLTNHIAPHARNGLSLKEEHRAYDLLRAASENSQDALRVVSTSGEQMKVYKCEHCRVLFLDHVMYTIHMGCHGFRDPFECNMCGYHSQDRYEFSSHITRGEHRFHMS

Row | DC50 [1] [nM] | DC50 [2] [nM] | Dmax [2, 3] [%] | Structure (SMILES) | Dmax ([2]; Jurkat, 18 h) [%]
1 | ≥ 10000 | 0.343 | 90.6 | Cc1ccc(CN2CCC(c3c(F)cc4c(c3F)CN(C3CCC(=O)NC3=O)C4=O)CC2)cc1 (stereo not drawn) [Compound 45, 3-(4,6-difluoro-5-(1-(4-methylbenzyl)piperidin-4-yl)-1-oxoisoindolin-2-yl)piperidine-2,6-dione] | 
2 | ≥ 10000 | 10.4 | 85.3 | Cn1cncc1CN1CCC(c2c(F)cc3c(c2F)CN(C2CCC(=O)NC2=O)C3=O)CC1 (stereo not drawn) [Compound 1, 3-(4,6-difluoro-5-(1-((1-methyl-1H-imidazol-5-yl)methyl)piperidin-4-yl)-1-oxoisoindolin-2-yl)piperidine-2,6-dione] | 
3 | ≥ 10000 | 2.11 | 92.9 | O=C1CCC(N2Cc3c(cc(F)c(C4CCN(Cc5cccc6ncsc56)CC4)c3F)C2=O)C(=O)N1 (stereo not drawn) [Compound 64, 3-(5-(1-(benzo[d]thiazol-7-ylmethyl)piperidin-4-yl)-4,6-difluoro-1-oxoisoindolin-2-yl)piperidine-2,6-dione] | 
4 | ≥ 10000 | 2.1 | 90.3 | Cc1ccc(CN2CCC(c3cc4c(cc3F)C(=O)N(C3CCC(=O)NC3=O)C4)CC2)cc1 (stereo not drawn) [Compound 84, 3-(6-fluoro-5-(1-(4-methylbenzyl)piperidin-4-yl)-1-oxoisoindolin-2-yl)piperidine-2,6-dione] | 
5 | ≥ 10000 | 2.86 | 83 | O=C1CCC(N2Cc3c(cc(F)c(C4CCN(CCCOc5ccccc5)CC4)c3F)C2=O)C(=O)N1 (stereo not drawn) [Compound 118, 3-(4,6-difluoro-1-oxo-5-(1-(3-phenoxypropyl)piperidin-4-yl)isoindolin-2-yl)piperidine-2,6-dione] | 
6 | ≥ 10000 | 2.1 | 89.7 | O=C1CCC(N2Cc3c(cc(F)c(C4CCN(Cc5cccnc5)CC4)c3F)C2=O)C(=O)N1 (stereo not drawn) [Compound 107, 3-(4,6-difluoro-1-oxo-5-(1-(pyridin-3-ylmethyl)piperidin-4-yl)isoindolin-2-yl)piperidine-2,6-dione] | 
7 | ≥ 10000 | 24.5 | 61.7 | O=C1CCC(N2Cc3c(cc(F)c(CNC(=O)C4CCC(C(F)(F)F)CC4)c3F)C2=O)C(=O)N1 (stereo not drawn) [Compound 78, N-((2-(2,6-dioxopiperidin-3-yl)-4,6-difluoro-1-oxoisoindolin-5-yl)methyl)-4-(trifluoromethyl)cyclohexane-1-carboxamide] | 
8 | ≥ 10000 | 0.468 | 88.7 | O=C1CCC(N2Cc3c(cc(F)c(C4CCN(Cc5ccc(C(F)(F)F)cc5O)CC4)c3F)C2=O)C(=O)N1 (stereo not drawn) [Compound 55, 3-(4,6-difluoro-5-(1-(2-hydroxy-4-(trifluoromethyl)benzyl)piperidin-4-yl)-1-oxoisoindolin-2-yl)piperidine-2,6-dione] | 
9 | ≥ 10000 | 3.06 | 93 | O=C1CCC(N2Cc3cc(C4CCN(Cc5ccc6ncsc6c5)CC4)c(F)cc3C2=O)C(=O)N1 (stereo not drawn) [Compound 81, 3-(5-(1-(benzo[d]thiazol-6-ylmethyl)piperidin-4-yl)-6-fluoro-1-oxoisoindolin-2-yl) piperidine-2,6-dione] | 
10 | ≥ 10000 | 3.88 | 88.3 | O=C1CCC(N2Cc3c(cc(F)c(C4CCN(C5CCCCC5)CC4)c3F)C2=O)C(=O)N1 (stereo not drawn) [Compound 97, 3-(5-(1-cyclohexylpiperidin-4-yl)-4,6-difluoro-1-oxoisoindolin-2-yl)piperidine-2,6-dione] | 
11 | ≥ 10000 | 4.37 | 78.7 | O=C1CCC(N2Cc3c(cc(F)c(C4CCN(C5CCC5)CC4)c3F)C2=O)C(=O)N1 (stereo not drawn) [Compound 3, 3-(5-(1-cyclobutylpiperidin-4-yl)-4,6-difluoro-1-oxoisoindolin-2-yl)piperidine-2,6-dione] | 
12 | ≥ 10000 | 0.91 | 91.8 | O=C1CCC(N2Cc3c(cc(F)c(C4CCN(Cc5ccc(C(F)(F)F)cc5)CC4)c3F)C2=O)C(=O)N1 (stereo not drawn) [Compound 52, 3-(4,6-difluoro-1-oxo-5-(1-(4-(trifluoromethyl)benzyl)piperidin-4-yl)isoindolin-2-yl)piperidine-2,6-dione] | 
13 | ≥ 10000 | 35.2 | 53.9 | O=C1CCC(N2Cc3c(cc(F)c(CNC(=O)c4cc5ccccn5c4)c3F)C2=O)C(=O)N1 (stereo not drawn) [Compound 69, N-[[2-(2,6-dioxo-3-piperidyl)-4,6-difluoro-1-oxo-isoindolin-5-yl]methyl]indolizine-2-carboxamide] | 
14 | ≥ 10000 | 11 | 76.7 | COCCN1CCC(c2c(F)cc3c(c2F)CN(C2CCC(=O)NC2=O)C3=O)CC1 (stereo not drawn) [Compound 124, 3-(4,6-difluoro-5-(1-(2-methoxyethyl)piperidin-4-yl)-1-oxoisoindolin-2-yl)piperidine-2,6-dione] | 
15 | ≥ 10000 | 20.4 | 76.7 | CS(=O)(=O)CCCN1CCC(c2c(F)cc3c(c2F)CN(C2CCC(=O)NC2=O)C3=O)CC1 (stereo not drawn) [Compound 121, 3-(4,6-difluoro-5-(1-(3-(methylsulfonyl)propyl)piperidin-4-yl)-1-oxoisoindolin-2-yl)piperidine-2,6-dione] | 
16 | ≥ 10000 | 4.06 | 94.2 | O=C1CCC(N2Cc3cc(C4CCN(Cc5ccc6cn[nH]c6c5)CC4)c(F)cc3C2=O)C(=O)N1 (stereo not drawn) [Compound 87, 3-(5-(1-((1H-indazol-6-yl)methyl)piperidin-4-yl)-6-fluoro-1-oxoisoindolin-2-yl)piperidine-2,6-dione] | 
17 | ≥ 10000 | 21.2 | 92.5 | O=C1CCC(N2Cc3c(cc(F)c(C(=O)N4CCc5cc(F)c(F)cc5C4)c3F)C2=O)C(=O)N1 (stereo not drawn) [Compound 72, 3-[5-(6,7-difluoro-3,4-dihydro-1H-isoquinoline-2-carbonyl)-4,6-difluoro-1-oxo-isoindolin-2-yl]piperidine-2,6-dione] | 
18 | ≥ 10000 | 0.108 | 91 | O=C1CCC(N2Cc3c(cc(F)c(C4CCN(Cc5cccc(-n6cccn6)c5)CC4)c3F)C2=O)C(=O)N1 (stereo not drawn) [Compound 49, 3-(5-(1-(3-(1H-pyrazol-1-yl)benzyl)piperidin-4-yl)-4,6-difluoro-1-oxoisoindolin-2-yl)piperidine-2,6-dione] | 
19 | ≥ 10000 | 2.67 | 94.2 | O=C1CCC(N2Cc3cc(C4CCN(Cc5ccc6[nH]ccc6c5)CC4)c(F)cc3C2=O)C(=O)N1 (stereo not drawn) [Compound 89, 3-(5-(1-((1H-indol-5-yl)methyl)piperidin-4-yl)-6-fluoro-1-oxoisoindolin-2-yl)piperidine-2,6-dione] | 
20 | ≥ 10000 | 3.9 | 92.1 | O=C1CCC(N2Cc3cc(C4CCN(Cc5cccc6ncsc56)CC4)c(F)cc3C2=O)C(=O)N1 (stereo not drawn) [Compound 91, 3-(5-(1-(benzo[d]thiazol-7-ylmethyl)piperidin-4-yl)-6-fluoro-1-oxoisoindolin-2-yl)piperidine-2,6-dione] | 
21 | ≥ 10000 | 0.097 | 92 | O=C1CCC(N2Cc3c(cc(F)c(C4CCN(Cc5ccc(C(F)F)cc5)CC4)c3F)C2=O)C(=O)N1 (stereo not drawn) [Compound 51, 3-(5-(1-(4-(difluoromethyl)benzyl)piperidin-4-yl)-4,6-difluoro-1-oxoisoindolin-2-yl)piperidine-2,6-dione] | 

Row | Structure (SMILES) | DC50 [1] [nM] | DC50 [2] [nM] | Dmax [2, 3] [%] | Dmax ([2]; Jurkat, 18 h) [%]
22 | O=C1CCC(N2Cc3cc(C4CCN(Cc5ccc(C(F)(F)F)cc5)CC4)c(F)cc3C2=O)C(=O)N1 (stereo not drawn) [Compound 85, 3-(6-fluoro-1-oxo-5-(1-(4-(trifluoromethyl)benzyl)piperidin-4-yl)isoindolin-2-yl) piperidine-2,6-dione] | ≥ 10000 | 1.53 |  | 89.3
23 | O=C1CCC(N2Cc3c(cc(F)c(C4(O)CCN(Cc5nc6ccccc6s5)CC4)c3F)C2=O)C(=O)N1 (stereo not drawn) [Compound 57, 3-(5-(1-(benzo[d]thiazol-2-ylmethyl)-4-hydroxypiperidin-4-yl)-4,6-difluoro-1-oxoisoindolin-2-yl)piperidine-2,6-dione] | ≥ 10000 | 101 | 63.2 | 
